Tests used:
DLG1_3 = assay: holdup assay, DLG1_3 PDZ domain; type: binding, human; conditions: biotinylated PBM-HBc peptide, in duplicates, BI > 0.2 significant
SNTA1 = assay: holdup assay, SNTA1 PDZ domain; type: binding, human; conditions: biotinylated PBM-HBc peptide, in duplicates, BI > 0.2 significant
MAST2 = assay: holdup assay, MAST2 PDZ domain; type: binding, human; conditions: biotinylated PBM-HBc peptide, in duplicates, BI > 0.2 significant
GIPC2 = assay: holdup assay, GIPC2 PDZ domain; type: binding, human; conditions: biotinylated PBM-HBc peptide, in duplicates, BI > 0.2 significant
PTPN4 = assay: holdup assay, PTPN4 PDZ domain; type: binding, human; conditions: biotinylated PBM-HBc peptide, in duplicates, BI > 0.2 significant
DLG4_3 = assay: holdup assay, DLG4_3 PDZ domain; type: binding, human; conditions: biotinylated PBM-HBc peptide, in duplicates, BI > 0.2 significant
SNTB2 = assay: holdup assay, SNTB2 PDZ domain; type: binding, human; conditions: biotinylated PBM-HBc peptide, in duplicates, BI > 0.2 significant
[1] = test system: human PDZ domains (the PDZome); assay: holdup assay, PDZome profile; type: binding; conditions: holdup assay against human PDZome, threshold BI = 0.2
MAGI3 = assay: holdup assay, MAGI3 PDZ domain; type: binding, human; conditions: biotinylated PBM-HBc peptide, in duplicates, BI > 0.2 significant
GIPC1 = assay: holdup assay, GIPC1 PDZ domain; type: binding, human; conditions: biotinylated PBM-HBc peptide, in duplicates, BI > 0.2 significant
SCRIB = assay: holdup assay, SCRIB PDZ domain; type: binding, human; conditions: biotinylated PBM-HBc peptide, in duplicates, BI > 0.2 significant
MAGI1 = assay: holdup assay, MAGI1 PDZ domain; type: binding, human; conditions: biotinylated PBM-HBc peptide, in duplicates, BI > 0.2 significant
DLG2_1 = assay: holdup assay, DLG2_1 PDZ domain; type: binding, human; conditions: biotinylated PBM-HBc peptide, in duplicates, BI > 0.2 significant
DLG4_1 = assay: holdup assay, DLG4_1 PDZ domain; type: binding, human; conditions: biotinylated PBM-HBc peptide, in duplicates, BI > 0.2 significant
STXB4 = assay: holdup assay, STXB4 PDZ domain; type: binding, human; conditions: biotinylated PBM-HBc peptide, in duplicates, BI > 0.2 significant
InaDl = assay: holdup assay, InaDl PDZ domain; type: binding, human; conditions: biotinylated PBM-HBc peptide, in duplicates, BI > 0.2 significant
SIPA1L2 = assay: holdup assay, SIPA1L2 PDZ domain; type: binding, human; conditions: biotinylated PBM-HBc peptide, in duplicates, BI > 0.2 significant
DLG2_2 = assay: holdup assay, DLG2_2 PDZ domain; type: binding, human; conditions: biotinylated PBM-HBc peptide, in duplicates, BI > 0.2 significant
TJP2 = assay: holdup assay, TJP2 PDZ domain; type: binding, human; conditions: biotinylated PBM-HBc peptide, in duplicates, BI > 0.2 significant
MPDZ = assay: holdup assay, MPDZ PDZ domain; type: binding, human; conditions: biotinylated PBM-HBc peptide, in duplicates, BI > 0.2 significant
MAGI2 = assay: holdup assay, MAGI2 PDZ domain; type: binding, human; conditions: biotinylated PBM-HBc peptide, in duplicates, BI > 0.2 significant
DLG3_2 = assay: holdup assay, DLG3_2 PDZ domain; type: binding, human; conditions: biotinylated PBM-HBc peptide, in duplicates, BI > 0.2 significant
DLG1_1 = assay: holdup assay, DLG1_1 PDZ domain; type: binding, human; conditions: biotinylated PBM-HBc peptide, in duplicates, BI > 0.2 significant
SYNJ2BP = assay: holdup assay, SYNJ2BP PDZ domain; type: binding, human; conditions: biotinylated PBM-HBc peptide, in duplicates, BI > 0.2 significant
DLG4_2_ = assay: holdup assay, DLG4_2_ PDZ domain; type: binding, human; conditions: biotinylated PBM-HBc peptide, in duplicates, BI > 0.2 significant
SNX27 = assay: holdup assay, SNX27 PDZ domain; type: binding, human; conditions: biotinylated PBM-HBc peptide, in duplicates, BI > 0.2 significant
SNTB1 = assay: holdup assay, SNTB1 PDZ domain; type: binding, human; conditions: biotinylated PBM-HBc peptide, in duplicates, BI > 0.2 significant
DLG1_2 = assay: holdup assay, DLG1_2 PDZ domain; type: binding, human; conditions: biotinylated PBM-HBc peptide, in duplicates, BI > 0.2 significant
PTPN3-PDZ [2] = conditions: previously reported; cited from earlier work
Source text: In the present study, we investigated the molecular mechanism of interaction between PTPN3 and HBc. […] We confirmed the interaction by NMR.

[3] = biological target: T1, PDZ domain of PTPN3 (PTPN3-PDZ), residues 489-597 (human, UniProt P26045 489-597); assay: crystal structure; co-crystal of PTPN3-PDZ with PBM-HBc peptide added in excess; 20 mM HEPES pH 8, 150 mM NaCl, 0.5 mM TCEP; reservoir 20% PEG 3350, 0.2 M NaBr pH 7; 1.86 Å; conditions: both partners purified
T1 construct: not shown: GST, N-terminal, cleaved
T1 sequence (looked up): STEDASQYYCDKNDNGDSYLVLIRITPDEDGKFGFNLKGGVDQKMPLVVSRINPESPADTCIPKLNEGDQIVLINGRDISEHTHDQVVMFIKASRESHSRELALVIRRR

PTPN3-PDZ [4] = assay: NMR binding of full-length HBc (CLPs) to PTPN3-PDZ; set-up: species or system human; conditions: 1H,15N HSQC-TROSY, 600 MHz, 20 °C, PTPN3-PDZ 95 μM, PDZ:HBc final ratio 1:19.4
Protocol: We then tested the complex formation between PTPN3-PDZ and the full-length HBc (Fig. 2c). ^1H, ^15N HSQC-TROSY spectra were recorded on ^15N-labeled PTPN3-PDZ in its free form (red signals in Fig. 2c) and in the presence of the unlabeled HBc full-length protein at different ratios. […] Indeed, wild type (WT) HBc proteins form homodimers and self-assemble into capsids, and the full-length HBc expressed in Escherichia coli mainly assembles into capsid-like particles (CLPs) of 3 to 5 million Da, as measured by analytical ultracentrifugation (AUC) (Fig. 2d). […] The molecular tumbling of PTPN3-PDZ is drastically slowed down when forming high molecular weight complexes with the CLPs, which induced the broadening of the linewidths of the PTPN3-PDZ signals beyond detection. Yet, the TROSY spectra of the complexes did contain a few peaks, which we attributed to regions of PTPN3-PDZ that remained mobile, probably the N-terminal and C-terminal extremities.
The NMR binding experiments between PTPN3-PDZ and full-length HBc as CLPs were performed at 20 °C on a 600-MHz BRUKER Avance III HD spectrometer equipped with a cryoprobe. […] A series of ^1H, ^15N HSQC-TROSY spectra was recorded for different titration points with a ratio PDZ:HBc (mol:mol) 1:0, 1:1.4, 1:5.6, and 1:19.4.

GST-PTPN3-PDZ = assay: GST pull-down assay with GST-PTPN3-PDZ; type: binding, human; conditions: lysate of HeLa S3 cells overexpressing HF-tagged HBc; anti-HA Western blot; GST alone as negative control
Protocol: To investigate whether the PBM at the end of CTD of HBc is accessible to PTPN3 binding during capsid assembly, a glutathione S-transferase (GST) pull-down in vitro assay was performed with lysates of HeLa S3 cells overexpressing the HA-Flag-tagged either wild-type full-length HBc (HF-HBc WT) or its Y132A mutant (HF-HBc Y132A) that forms dimers but is unable to assemble into capsids[35] (Fig. 3a; Supporting Information Fig. 1). GST protein was used as a negative control. The expression of HF-HBc WT and HF-HBc Y132A in the cell lysates was verified by Western blot using the anti-HA antibody (Fig. 3a, lane 5). We also confirmed, using native Western blot, the presence of capsid in the HeLaS3 HBc WT cell lysate and its absence in the HeLaS3 HBc Y132A cell lysate (Fig. 3b).
The construct PTPN3-PDZ tagged with a N-terminal GST (GST-PTPN3-PDZ) was expressed and purified as previously described[25] without TEV cleavage. The additional TEV cleavage step of GST-PTPN3-PDZ provides the GST alone. […]
After lysate binding, the glutathione-agarose beads were washed four times with binding buffer, pelleted, and resuspended in SDS-PAGE sample buffer for Western blotting. After boiling, the bound proteins were analyzed using 12% SDS-PAGE followed by Western blotting using HRP-conjugated HA Epitope Tag monoclonal antibody (26183-HRP, THERMOFISHER) diluted to 1:2000. […]

Molecule: -RRRRSQSRESQC [HBc PBM]
- BI (binding intensity) (DLG1_3): 0,34
- BI (binding intensity) (SNTA1): 0,25
- BI (binding intensity) (MAST2): 0,21
- BI (binding intensity) (GIPC2): 0,31
- BI (binding intensity) (PTPN4): 0,58
- BI (binding intensity) (DLG4_3): 0,53
- BI (binding intensity) (SNTB2): 0,38
- number of potential HBc binders containing PDZ domains [1]: 28
- BI (binding intensity) (MAGI3): 0,78
- BI (binding intensity) (GIPC1): 0,85
- BI (binding intensity) (SCRIB): 0,23
- BI (binding intensity) (MAGI1): 0,49
- BI (binding intensity) (DLG2_1): 0,35
- BI (binding intensity) (DLG4_1): 0,43
- BI (binding intensity) (STXB4): 0,47
- BI (binding intensity) (InaDl): 0,29
- BI (binding intensity) (SIPA1L2): 0,24
- BI (binding intensity) (DLG2_2): 0,38
- BI (binding intensity) (TJP2): 0,27
- BI (binding intensity) (MPDZ): 0,46
- BI (binding intensity) (MAGI2): 0,51
- BI (binding intensity) (DLG3_2): 0,36
- BI (binding intensity) (DLG1_1): 0,34
- BI (binding intensity) (SYNJ2BP): 0,43
- BI (binding intensity) (DLG4_2_): 0,35
- BI (binding intensity) (SNX27): 0,39
- BI (binding intensity) (SNTB1): 0,54
- BI (binding intensity) (DLG1_2): 0,40

Molecule: ETQL [PBM-16E6, PBM of the HPV16 E6 protein, reference compound]
- KD (PTPN3-PDZ [2]): a few tens of

Molecule: NH2RRRRSQSRESQCCOOH [PBM-HBc, PBM-HBc peptide (NH2…OOH)]
- KD (PTPN3-PDZ [2]): a few tens of

B1: PBM-HBc peptide (C-terminal PDZ-binding motif of the hepatitis B virus core protein) (peptide)
peptide: RRRRSQSRESQC
notes: also called PBM of HBc; source: synthetic peptide (Fmoc solid phase, PROTEOGENIX)
- binding result [3]: binds

B2: full-length HBc: full-length HBc expressed in Escherichia coli mainly assembles into capsid-like particles (CLPs) (protein)
chain: MDIDPYKEFGATVELLSFLPSDFFPSVRDLLDTASALYREALESPEHCSPHHTALRQAILCWGELMTLATWVGVNLEDPASRDLVVSYVNTNMGLKFRQLLWFHISCLTFGRETVIEYLVSFGVWIRTPPAYRPPNAPILSTLPETTVVRRRGRSPRRRTPSPRRRRSQSPRRRRSQSRESQC
- effect on TROSY resonances of PTPN3-PDZ (PTPN3-PDZ [4]): nearly all of the TROSY resonances observed with free PTPN3-PDZ had disappeared

B3: HBc WT: HA-Flag-tagged wild-type full-length HBc (protein)
chain: MDIDPYKEFGATVELLSFLPSDFFPSVRDLLDTASALYREALESPEHCSPHHTALRQAILCWGELMTLATWVGVNLEDPASRDLVVSYVNTNMGLKFRQLLWFHISCLTFGRETVIEYLVSFGVWIRTPPAYRPPNAPILSTLPETTVVRRRGRSPRRRTPSPRRRRSQSPRRRRSQSRESQC
- binding in GST pull-down (GST-PTPN3-PDZ): detected only in interaction with GST-PTPN3-PDZ
